These results are taken from patent publication US6673902B2, “Cyclin D binding factor, and uses thereof” (St. Jude Children's Research Hospital, priority 1996, dated 2004).

In one assay the test system is NIH-3T3 fibroblasts. The experiment in a line: BrdU incorporation in transfected NIH-3T3 fibroblasts. The class given is cell-based, mouse. To be noted: for % Cells BrdU Positive: Table 2, expression vector 3 μg/10 ml; for % Cells BrdU Positive in 10% FCS: nonstarved cells; for % Cells BrdU Positive in 0.1% FCS: starved cells. As to the method: BrdU is added to NIH-3T3 cells after the experimental treatment and the cells were incubated for twenty-two hours in DMEM plus 10% fetal calf serum (FCS). The cells were then stained for DMP1 expression and/or BrdU incorporation. The nucleic acids encoding the wildtype DMP1 and the deletion and point mutants had been constructed so as to express the corresponding proteins with Flag-tags. To stain for DMP1 expression, mouse monoclonal anti-Flag antibodies (12 μg/ml) [Kodak] were incubated with the cells in TBS-Ca^+ without FCS for one hour at room temperature. After washing the cells, horse anti-mouse biotinylated antibodies at a 1:500 dilution were added to the cells in TBS plus 5% FCS and incubated for 30 minutes at room temperature. After washing the cells, strefptavidin linked to Texas red [Amersham] was then added at a 1:500 dilution for 30 minutes at room temperature. To stain for BrdU incorporation, 1.5N HCl was added to the cells for ten minutes at room temperature to denature the DNA. After washing the cells, sheep anti-BrdU antibodies [Fitzgerald] at a 1:12 dilution were then added for one hour at room temperature. After washing the cells, rabbit FITC-conjugated anti-sheep antibodies [Vector] at 1:100 dilution was then incubated for 30 minutes at room temperature.
NIH-3T3 cells were placed on cover slides and transfected with the expression vectors (pFLEX-DMP1 or the corresponding vector containing the deletion or point mutants of mouse DMP1 plus or minus cyclin D or E) for fourteen hours. The cells were then washed twice and DMEM plus 10% FCS was added and the cells incubated for eight hours. Half of the cells were starved by washing twice with 0.1% FCS, and then incubated for twenty-four hours in 0.1% FCS in DMEM. The remaining cells were not starved but were incubated for twenty-four hours in DMEM plus 10% FCS without washing. BrdU was added to both groups of cells and the cells were incubated for twenty-two hours in DMEM plus 10% FCS.
The cells were then restimulated to enter the cell cycle synchronously with DMEM plus 10% FCS. At the same time, 5′-Bromo-2′ Deoxyuridine (BrdU) was added to the medium. The cells were fixed 22 hours later in methanol acetone (1:1) and stained for BrdU incorporation and DMP1 expression as described in the Materials and Methods.
Background: Incorporation of labelled thymidine or its analogues reports DNA synthesis.

Assay [1] has as its system DMP1-responsive promoter (pGL2BS2). The experiment in a line: Transactivation of luciferase reporter plasmid under control of a DMP1-responsive promoter in NIH-3T3 fibroblasts. Format: cell-based, mouse. To be noted: vector without insert set to 1.0. The source says: Coexpression of a D-type cyclin with DMP1 overrides the ability of DMP1 to transactivate a luciferase gene under the control of an artificial DMP1-responsive promoter (Table 4), as well as the ability of DMP1 to inhibit cell growth.
In general terms: A reporter such as luciferase makes a cellular process visible.

The subject of the next assay is 32P-BS2 Probe. The experiment in a line: EMSA with 32P-BS2 probe on transfection lysates of NIH-3T3 fibroblasts. The class given is binding. Particulars: EMSA, 32P-BS2 probe, lysates of transfected NIH-3T3 fibroblasts. As to the method: Double-stranded oligonucleotides containing potential DMP1 binding sites (BS1 and BS2) and mutated versions (M1-M4) (FIG. 5B) are end-labeled with ^32P using the Klenow fragment of DNA polymerase and α-^32P-dATP (6000 Ci/mmol; Dupont NEN) (8). Nuclear extracts from mouse NIH-3T3 or CTLL cells are prepared with buffer containing 0.4 M NaCl (2). Mammalian cell extracts (15 μg protein) or Sf9 lysates (corresponding to 5×10^2 infected cells) containing ˜4 ng recombinant DMP1 are mixed with 3 ng of ^32P-labeled probe (1×10^5 cpm) in 15 ul Binding buffer containing 2.5 μg of poly(dI-dC) and 2.5 μg BSA and incubated at 4° C. for 30 minutes. For competition experiments, the indicated amounts of unlabeled oligonucleotides are added to the reactions before addition of the labeled probe. In some experiments, a bacterially produced GST-Ets2 fusion protein containing the complete Ets2 DNA-binding domain (10) is used in place of Sf9 extracts containing recombinant DMP1. Protein-DNA complexes are separated on nondenaturing 4% polyacrylamide gels as described (8). Where indicated, antiserum to DMP1 together with 2.5 μg salmon testis DNA (Sigma; used to reduce nonspecific DNA binding activity caused by serum addition) is preincubated with extracts for 30 minutes at 4° C. prior to initiation of binding reactions. Immune complexes are either removed by adsorption to protein A-Sepharose beads (immunodepletion experiments) or are allowed to remain (“supershift” experiments).
A series of deletion mutants and a point mutant of DMP1, K319E, (in which the lysine at position 319 of SEQ ID NO:1 is replaced by a glutamic acid) were prepared and used to determine the DNA-binding domain of DMP1 by electrophoretic mobility shift assay (EMSA) using a ^32P labeled BS2 probe. The DNA-binding domain of DMP1 was mapped to a central region containing the three MYB repeats plus adjacent flanking sequences: a BstEII to NcoI fragment encoding amino acids 87-458 of SEQ ID NO:1 (Table 1). This region alone was necessary and sufficient for DNA binding.
A general note: A gel shift assay detects complexes by their altered migration in electrophoresis.

The next assay deals with wild-type MEFs. Nature of the assay: Apoptosis assay in wild-type MEFs deprived of serum. Format: cell-based, mouse. As to the method:
Apoptosis assays. Wild-type MEFs infected with the indicated retroviruses for 36 hours were starved for serum for 24 hours. Viability was determined by trypan blue dye exclusion, and DNA fragmentation was monitored by a terminal deoxynuclectidyl transferase (FACS-TUNEL) assay and by measurement of subdiploid DNA content of propidium iodide-stained nuclei [Zindy et al., Genes Dev. 12:2424-2433 (1998)].
On the other hand, MEFs overexpressing c-Myc, E2F-1, or E1A are exquisitely sensitive to apoptosis. […] 12:2424-2433 (1998); De Stanchina et al., Genes Dev. 12:2434-2442 (1998)].

Where [2] appears, read: expression vector 3 μg/10 ml, pGL2BS2 8 μg/10 ml.
Where [3] appears, read: additive None, labeled 22 hours.

As to “M3: DMP1 deletion mutant (NcoI), amino acids 1-458 of SEQ ID NO:1”, the “% Cells BrdU Positive” value in the assay with NIH-3T3 fibroblasts was found to be 24%. For the same substance, in assay [1] (setting [2]), the “Luciferase Activity” value is listed as 2.3. The “32P-labeled Band” value in the assay on 32P-BS2 Probe is on record as “Yes”.

As to “DMP1: murine cyclin D-associated myb-like transcription factor, 761 amino acids, SEQ ID NO:1”, the “% Cells BrdU Positive” value in the assay with NIH-3T3 fibroblasts was determined as 12%. Further, the “% Cells BrdU Positive in 10% FCS” value in the assay on NIH-3T3 fibroblasts (setting [3]) was 30%; in the assay with NIH-3T3 fibroblasts (additive cyclin D2) it was 80%; in the assay with NIH-3T3 fibroblasts (additive cyclin E) it was 82%. The “% Cells BrdU Positive in 0.1% FCS” value in the assay with NIH-3T3 fibroblasts (setting [3]) is reported as 15%; with NIH-3T3 fibroblasts (additive cyclin D2) it was 57%; with NIH-3T3 fibroblasts (additive cyclin E) it was 56%. The “apoptosis / cell death” value in the assay on wild-type MEFs is “did not trigger apoptosis”. Also, the “Luciferase Activity” value in assay [1] (Table 4, DMP1 coexpressed with the additive named as label (DMP1 row: no additive)) was determined as 8.4; in assay [1] (setting [2]), 8.4. Also, the “32P-labeled Band” value with 32P-BS2 Probe was “Yes”.
